In patent publication US9796733B2, “Imidazo-pyrazine derivatives useful as soluble guanylate cyclase activators” (Merck Sharp & Dohme Corp., priority 2014, dated 2017):

How the values were obtained:
[1] = test system: Spontaneously hypertensive rats (SHR); experiment: Acute efficacy in spontaneously hypertensive rats (SHR): telemetry blood pressure lowering after a single oral dose; type: in vivo, rat
Outline: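 Values are the maximum peak fall in systolic pressure after one oral dose (mpk), computed hourly against baseline from a vehicle dose given the day before. Rats were conscious, male, spontaneously hypertensive, with femoral-aortic telemetry recording 30 s every 10 min, 14 days post-surgery.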

sGC α1/β1 heterodimer = biological target: T1, sGC α1/β1 heterodimer (Homo sapiens, UniProt Q02108+Q02153); experiment: Cell-based sGC functional assay (CASA assay): cGMP generation in CHO-K1/sGC cells, HTRF detection; settings: for Emax: CHO-K1, percent activation relative to standard Compound A in CHO-K1/sGC cells, read-out: % Act.; for EC50: inflection point (IP) of cGMP generation in CHO-K1/sGC cells, 4P fit, activity expressed as percentage of Compound A
T1 construct: expressed in transfected cells; host or cells: CHO-K1 (clone #7, CHO-K1/sGC)
T1 sequence (Q02108 1-690): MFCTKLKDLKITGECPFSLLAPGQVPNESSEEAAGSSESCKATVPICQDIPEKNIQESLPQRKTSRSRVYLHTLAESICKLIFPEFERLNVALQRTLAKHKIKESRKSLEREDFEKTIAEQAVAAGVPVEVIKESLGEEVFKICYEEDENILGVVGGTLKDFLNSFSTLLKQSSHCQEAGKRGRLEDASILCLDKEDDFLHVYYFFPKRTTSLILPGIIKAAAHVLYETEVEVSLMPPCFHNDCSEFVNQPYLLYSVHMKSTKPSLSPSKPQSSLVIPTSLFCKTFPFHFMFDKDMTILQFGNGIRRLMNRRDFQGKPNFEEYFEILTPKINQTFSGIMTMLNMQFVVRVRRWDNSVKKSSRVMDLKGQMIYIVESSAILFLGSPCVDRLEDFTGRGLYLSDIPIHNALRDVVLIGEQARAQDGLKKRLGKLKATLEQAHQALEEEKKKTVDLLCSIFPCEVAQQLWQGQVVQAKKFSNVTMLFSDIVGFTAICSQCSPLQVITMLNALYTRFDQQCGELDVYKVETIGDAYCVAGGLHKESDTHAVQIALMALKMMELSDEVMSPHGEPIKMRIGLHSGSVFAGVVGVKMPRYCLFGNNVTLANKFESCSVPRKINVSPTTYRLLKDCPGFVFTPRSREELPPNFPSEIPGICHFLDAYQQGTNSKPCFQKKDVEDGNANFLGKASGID
T1 sequence (Q02153 1-619): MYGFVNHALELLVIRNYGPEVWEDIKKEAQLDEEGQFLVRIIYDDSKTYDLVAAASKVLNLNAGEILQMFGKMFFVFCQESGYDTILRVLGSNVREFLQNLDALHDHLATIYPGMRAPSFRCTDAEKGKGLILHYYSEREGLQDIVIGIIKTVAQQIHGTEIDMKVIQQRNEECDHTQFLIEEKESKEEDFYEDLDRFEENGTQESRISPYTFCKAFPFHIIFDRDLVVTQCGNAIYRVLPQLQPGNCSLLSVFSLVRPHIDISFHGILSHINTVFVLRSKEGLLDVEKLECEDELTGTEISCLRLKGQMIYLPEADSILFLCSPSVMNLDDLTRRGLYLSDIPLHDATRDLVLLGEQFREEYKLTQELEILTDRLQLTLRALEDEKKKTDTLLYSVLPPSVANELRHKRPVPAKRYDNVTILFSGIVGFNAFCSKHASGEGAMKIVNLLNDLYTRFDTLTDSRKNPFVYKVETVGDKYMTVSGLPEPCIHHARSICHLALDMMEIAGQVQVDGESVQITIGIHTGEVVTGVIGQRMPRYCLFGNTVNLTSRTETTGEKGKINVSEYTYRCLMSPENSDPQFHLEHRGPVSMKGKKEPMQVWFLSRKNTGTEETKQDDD
Outline: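 cGMP was quantified by HTRF after 1 hr, 37° C exposure of thawed CHO-K1 cells expressing sGC α1/β1 to compound, with or without 1 μM DETA-NO. IBMX (0.5 mM) blocked cGMP breakdown, and DMSO was 2.5% final. Percent of standard Compound A's maximal cGMP was fitted (4P) for inflection point.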

## CCCCc1nc(-c2nc(N)c3c(n2)NC(=O)C3(c2ccc(Cl)cc2F)C2CC2)cn2ccnc12 (stereo not drawn) [Example 369A, 4-amino-2-(8-butylimidazo[1,2-a]pyrazin-6-yl)-5-(4-chloro-2-fluorophenyl)-5-cyclopropyl-5H-pyrrolo[2,3-d]pyrimidin-6(7H)-one]
[1]; P.O. 0.3 mpk
  Maximum peak decrease of systolic blood pressure (SBP) in SHR, Cat.: B (Category B=SBP in SHRs 20-40 mmHg)
sGC α1/β1 heterodimer
  Emax: 109%
  EC50: 13 nM

## CC1(c2ccc(Cl)cc2F)C(=O)Nc2nc(-c3cn4ccnc4c(CCC(F)(F)F)n3)nc(N)c21 (stereo not drawn) [Example 179A, 4-amino-5-(4-chloro-2-fluorophenyl)-5-methyl-2-(8-(3,3,3-trifluoropropyl)imidazo[1,2-a]pyrazin-6-yl)-5H-pyrrolo[2,3-d]pyrimidin-6(7H)-one]
[1]; P.O. 1.0 mpk
  Maximum peak decrease of systolic blood pressure (SBP) in SHR, Cat.: C (Category C=SBP in SHRs>40 mmHg)
sGC α1/β1 heterodimer
  Emax: 129%
  EC50: 45 nM

## CC1(c2ccc(Cl)cc2)C(=O)Nc2nc(-c3cn4ccnc4c(CCC(F)(F)F)n3)nc(N)c21 (stereo not drawn) [Example 182A, 4-amino-5-(4-chlorophenyl)-5-methyl-2-(8-(3,3,3-trifluoropropyl)imidazo[1,2-a]pyrazin-6-yl)-5H-pyrrolo[2,3-d]pyrimidin-6(7H)-one]
[1]; P.O. 1.0 mpk
  Maximum peak decrease of systolic blood pressure (SBP) in SHR, Cat.: B (Category B=SBP in SHRs 20-40 mmHg)
sGC α1/β1 heterodimer
  Emax: 120%
  EC50: 55 nM

## Nc1nc(-c2cn3ccnc3c(CCC(F)(F)F)n2)nc2c1C(c1ccc(F)cc1)(C1CCC1)C(=O)N2 (single isomer, unassigned) [Example 345B, 4-amino-5-cyclobutyl-5-(4-fluorophenyl)-2-(8-(3,3,3-trifluoropropyl)imidazo[1,2-a]pyrazin-6-yl)-5H-pyrrolo[2,3-d]pyrimidin-6(7H)-one]
[1]; P.O. 3.0 mpk
  Maximum peak decrease of systolic blood pressure (SBP) in SHR, Cat.: A (Category A=SBP in SHRs<20 mmHg)
sGC α1/β1 heterodimer
  Emax: 148%
  EC50: 949 nM
